The text below walks through data of article PMC10580381 (ACS Pharmacology & Translational Science, 2023).

“Also recorded” adds a separate entry of the source.

Data set [1] relates to E-cadherin. As to the kind of experiment: Western blot of E-cadherin in H1975 cells. The note with it: concentration-dependent. Type of data set: cell-based, human. (Immunoblotting shows a protein as a band on a membrane.)
Data set [2] addresses T1, recombinant human HDAC2 (Homo sapiens, UniProt Q92769).
T1 construct: purchased Creative Biomart
As to the kind of experiment: Biochemical HDAC activity assay, recombinant HDAC2. The note with it: recombinant HDAC2, mean ± SD, three independent experiments.

For data set [3], the system named is α-tubulin acetylation. As to the kind of experiment: Western blot of α-tubulin acetylation in H1975 cells. Type of data set: cell-based, human. To be noted: flunarizine up to 10 μM, 24 h. As to the method:
After the cancer cells were treated with the designated drug candidates, they were harvested in lysis buffer (0.05 M HEPES, 0.15 M NaCl, 2 mM EDTA, 10% v/v glycerol, and 1% v/v Triton X-100, pH 7.4) supplemented with protease and phosphatase inhibitors. Sodium dodecyl sulfate poly(acrylamide) gel electrophoresis (SDS-PAGE) was used to separate the different proteins in the whole cell lysates, which were then transferred to a poly(vinylidene difluoride) membrane for immunoblot analysis using different specific antibodies (acetylated histone H3, acetylated α-tubulin, histone H3, or GAPDH; Cell Signaling Technology). The bands corresponding to specific proteins of interest were visualized by using the WesternBright ECL HRP substrate (Advansta, San Jose, California). A chemiluminescent Western blot signal was detected and analyzed using a ChemiDoc MP system (Bio-Rad Laboratories, Hercules, California).

Data set [4] concerns H1975 cells. As to the kind of experiment: Wound healing assay. Format: cell-based, human. To be noted: up to 48 h. The text has this:
After the cells had grown to about 80% confluence, a physical gap was created on the cell monolayer by scratching with a pipet tip. […] The scratch closure rate was estimated by the change in the wound width over time. It was presented as the relative gap width (%) by dividing the average distance between the two margins of the scratch at the indicated time by the initial distance at the start of the wound healing assay.

The subject of data set [5] is vimentin. As to the kind of experiment: Western blot of vimentin in H1975 cells. Format: cell-based, human. The note with it: concentration-dependent.
For data set [6], the system named is Bim (BCL2L11). Description: Real-time PCR of Bim expression in H1975. The note with it: H1975, 24 h, flunarizine 2.5, 5, or 10 μM or SAHA 0.25, 0.5, or 1 μM; all concentrations tested. Format: cell-based, human. The procedure:
Reverse transcription was performed using 1 μg of total RNA sample with the PrimeScript First Strand cDNA Synthesis Kit (TaKaRa Biomedical Technology) at 37 °C for 10 min. The cDNA was then amplified by real-time PCR to determine the relative expression of p27^Kip1 and BIM using the KAPA SYBR FAST qPCR kit (KapaBiosystems, Wilmington, Massachusetts) with a LightCycler 480 Instrument I instrument (Roche Applied Science, Indianapolis, Indiana). The house-keeping gene GAPDH was also measured for normalization. Specific primer sequences used in the PCR reactions are p27^Kip1, forward 5′-[…]-3′ and reverse 5′-[…]-3′; Bim, forward 5′-[…]-3′ and reverse 5′-[…]-3′; and GAPDH, forward 5′-[…]-3′ and reverse 5′-[…]-3′. The PCR temperature program was set at 95 °C for 5 min, followed by 35 cycles of 95 °C for 10 s and 60 °C for 10 s. The fluorescent signal was detected at the end of the PCR elongation step of every cycle to keep track of the amount of amplified DNA. ΔCt was calculated by subtracting the Ct of GAPDH from the Ct of Bim or p27^Kip1. Fold change in gene expression was analyzed by the 2^–ΔΔCt method.
Background: Quantitative PCR measures a nucleic acid by following its amplification.

The test system of data set [7] is H820 cells.
For data set [8] the following is noted: in vivo; cited from earlier work.
For data set [9], the system named is H820 cells. Description: cells. To be noted: Homo sapiens, NCI-H820, read-out: cell viability (%).
In data set [10] the test system is BEAS-2B.
In data set [11] the test system is H1650 cells. As to the kind of experiment: cells. The note with it: Homo sapiens, NCI-H1650, read-out: cell viability (%).

T1 sequence (Q92769 whole entry): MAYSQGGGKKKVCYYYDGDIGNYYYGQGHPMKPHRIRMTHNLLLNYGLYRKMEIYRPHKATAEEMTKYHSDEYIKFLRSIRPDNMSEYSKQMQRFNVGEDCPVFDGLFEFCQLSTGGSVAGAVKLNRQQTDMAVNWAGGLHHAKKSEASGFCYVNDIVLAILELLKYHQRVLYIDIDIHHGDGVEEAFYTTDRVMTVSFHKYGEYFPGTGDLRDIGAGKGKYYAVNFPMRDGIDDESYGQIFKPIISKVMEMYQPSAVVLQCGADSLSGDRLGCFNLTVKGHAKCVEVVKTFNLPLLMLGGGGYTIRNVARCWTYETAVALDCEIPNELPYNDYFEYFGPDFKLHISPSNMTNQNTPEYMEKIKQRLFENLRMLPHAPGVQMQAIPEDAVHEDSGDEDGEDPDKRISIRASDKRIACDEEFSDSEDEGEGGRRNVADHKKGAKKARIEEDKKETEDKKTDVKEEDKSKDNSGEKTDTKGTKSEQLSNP

Take `Fc1ccc(C(c2ccc(F)cc2)N2CCN(C/C=C/c3ccccc3)CC2)cc1` [flunarizine]: the E-cadherin expression result in [1] was “upregulate”. Besides, in data set [2], the 50% inhibitory concentration (IC50) stood at 360 ± 26 nM. Also, the “effect on acetylation of α-tubulin” value in data set [3] is listed as “did not affect acetylation of α-tubulin; also recorded: did not affect the acetylation”. Also, the cancer cell migration entry in [4] is recorded as “inhibited the cell migration ability”. Also, in [5], the vimentin expression result is “downregulate”. Besides, the Bim expression entry in [6] is recorded as “significantly increase”. Besides, the viability in data set [7] came to 89 ± 5%. The elimination half-life entry in data set [8] is “around 18 days”. For the same molecule, in data set [9], the viability at 2.5 µM is 103 ± 5% and the viability at 5 µM came to 94 ± 7%. In data set [10], the “effect on cell viability of BEAS-2B” value is “did not appreciably affect the cell viability”. Further, in data set [11], the viability at 2.5 µM is 93 ± 4%, the viability at 5 µM is 92 ± 5% and the viability at 10 µM stood at 87 ± 6%.

A word on the IC50: it is the concentration needed to halve the response being measured. As usually defined, the viability is a read-out of living cells in per cent, often relative to untreated cells.
